Experimental data published in ChEMBL document CHEMBL1139745, “Synthesis and biological study of 4-aminopyrimidine-5-carboxaldehyde oximes as antiproliferative VEGFR-2 inhibitors” (Bioorg Med Chem Lett, 2006).
pIC50: −log10 of the molar value.

How the values were obtained:
[1] = system: HeLa; assay: Antiproliferative activity against HeLa cells; format: functional, cell-based; conditions: Homo sapiens
[2] = system: HCT-116; assay: Antiproliferative activity against HCT116 cells; format: functional, cell-based; conditions: Homo sapiens
[3] = system: A-375; assay: Antiproliferative activity against A375 cells; format: functional, cell-based; conditions: Homo sapiens
[4] = target: Vascular endothelial growth factor receptor 2 (Homo sapiens, UniProt P35968); assay: Inhibition of VEGFR2
Sequence of Vascular endothelial growth factor receptor 2 (P35968 whole entry): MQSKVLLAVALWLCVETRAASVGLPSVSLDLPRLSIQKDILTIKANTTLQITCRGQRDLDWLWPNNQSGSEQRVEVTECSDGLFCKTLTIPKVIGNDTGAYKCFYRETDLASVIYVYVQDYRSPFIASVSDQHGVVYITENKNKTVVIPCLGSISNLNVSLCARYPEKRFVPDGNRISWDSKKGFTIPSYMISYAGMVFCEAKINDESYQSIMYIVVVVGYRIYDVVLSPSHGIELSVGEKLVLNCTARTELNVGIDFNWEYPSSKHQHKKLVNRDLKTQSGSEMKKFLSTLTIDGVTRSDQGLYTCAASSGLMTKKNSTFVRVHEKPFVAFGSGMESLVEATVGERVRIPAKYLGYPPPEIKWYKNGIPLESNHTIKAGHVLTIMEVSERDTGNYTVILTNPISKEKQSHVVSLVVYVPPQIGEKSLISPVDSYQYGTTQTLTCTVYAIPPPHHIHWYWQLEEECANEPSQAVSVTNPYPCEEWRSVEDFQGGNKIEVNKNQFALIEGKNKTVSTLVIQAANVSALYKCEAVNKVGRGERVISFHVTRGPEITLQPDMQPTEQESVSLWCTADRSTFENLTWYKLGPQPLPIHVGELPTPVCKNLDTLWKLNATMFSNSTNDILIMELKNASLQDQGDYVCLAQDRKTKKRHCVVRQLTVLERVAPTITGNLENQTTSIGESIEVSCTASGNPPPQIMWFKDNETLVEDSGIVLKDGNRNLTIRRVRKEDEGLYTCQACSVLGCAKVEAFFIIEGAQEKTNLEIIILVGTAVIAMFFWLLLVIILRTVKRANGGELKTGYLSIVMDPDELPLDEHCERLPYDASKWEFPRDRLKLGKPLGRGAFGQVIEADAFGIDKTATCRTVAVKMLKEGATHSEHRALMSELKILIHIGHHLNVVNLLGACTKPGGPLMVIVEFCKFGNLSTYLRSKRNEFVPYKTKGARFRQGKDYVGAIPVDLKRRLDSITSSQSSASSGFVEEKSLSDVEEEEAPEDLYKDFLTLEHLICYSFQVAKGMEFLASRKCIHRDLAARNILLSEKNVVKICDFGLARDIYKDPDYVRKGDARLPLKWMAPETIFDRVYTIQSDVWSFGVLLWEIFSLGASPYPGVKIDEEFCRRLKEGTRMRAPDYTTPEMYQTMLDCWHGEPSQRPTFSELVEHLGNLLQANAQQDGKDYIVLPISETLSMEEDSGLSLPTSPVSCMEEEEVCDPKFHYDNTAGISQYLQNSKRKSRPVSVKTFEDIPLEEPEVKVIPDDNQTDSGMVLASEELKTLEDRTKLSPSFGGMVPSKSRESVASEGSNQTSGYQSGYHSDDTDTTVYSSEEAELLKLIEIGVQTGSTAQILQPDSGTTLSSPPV

[5] = system: HeLa; assay: Cell cycle arrest by accumulation at G2 phase in human HeLa cells at 62.5 nM; format: functional
[6] = system: HeLa; assay: Cell cycle arrest in human HeLa cells by accumulation at G1 phase at 62.5 nM; format: functional
[7] = system: HeLa; assay: Cell cycle arrest in human HeLa cells by accumulation at S phase at 62.5 nM; format: functional

Row | Compound | pIC50 [1] | pIC50 [2] | pIC50 [3] | pIC50 [4] | Activity [5] | Activity [6] | Activity [7]
1 | Cc1cc2c(F)c(Oc3ncnc(N)c3/C=N/OCC3CCCCC3)ccc2[nH]1 | 4.64 | 4.79 | 5.31 |  |  |  | 
2 | CO/N=C/c1c(N)ncnc1Oc1ccc2c(ccn2C)c1 | 6.43 | 6.13 | 6.49 |  |  |  | 
3 | CO/N=C/c1c(N)ncnc1Oc1ccc2cccnc2c1 | 5.74 | 5.58 | 6.05 |  |  |  | 
4 | COCCO/N=C/c1c(N)ncnc1Oc1ccc2[nH]c(C)cc2c1F | 6.51 | 6.41 | 6.63 |  |  |  | 
5 | CO/N=C/c1c(N)ncnc1Oc1ccc2ncccc2c1 | 5.46 | 5.54 | 5.74 |  |  |  | 
6 | Cc1cc2c(F)c(Oc3ncnc(N)c3/C=N/OCCO)ccc2[nH]1 | 6.39 | 6.49 | 6.43 |  |  |  | 
7 | COCCCO/N=C/c1c(N)ncnc1Oc1ccc2[nH]c(C)cc2c1F | 6.46 | 6.36 | 6.52 |  |  |  | 
8 | Cc1cc2c(F)c(Oc3ncnc(N)c3/C=N/O)ccc2[nH]1 | 6.33 | 5.94 | 6.31 | 7.48 |  |  | 
9 | C=CCO/N=C/c1c(N)ncnc1Oc1ccc2[nH]c(C)cc2c1F | 7.38 | 7.40 | 7.68 |  | 99.76% | 0.24% | 0%
10 | Cc1cc2c(F)c(Oc3ncnc(N)c3/C=N/OCCCO)ccc2[nH]1 | 6.44 | 6.34 | 6.47 |  |  |  | 
11 | Cc1cc2c(F)c(Oc3ncnc(N)c3/C=N/OCCN3CCCC3)ccc2[nH]1 | 5.37 | 5.34 | 5.67 |  |  |  | 
12 | CO/N=C/c1c(N)ncnc1Oc1ccc2[nH]c(C)cc2c1 | 6.41 | 6.41 | 6.45 |  |  |  | 
13 | CO/N=C/c1c(N)ncnc1Oc1ccc2[nH]cc(C)c2c1 | 6.51 | 6.41 | 6.88 |  |  |  | 
14 | CNCCO/N=C/c1c(N)ncnc1Oc1ccc2[nH]c(C)cc2c1F | 5.70 | 5.52 | 6.46 |  |  |  | 
15 | CO/N=C/c1c(N)ncnc1Oc1cc2cc[nH]c2cc1F | 6.42 | 6.37 | 6.49 |  |  |  | 
16 | CCO/N=C/c1c(N)ncnc1Oc1ccc2[nH]c(C)cc2c1F | 7.49 | 7.44 | 7.57 |  |  |  | 
17 | CCCCO/N=C/c1c(N)ncnc1Oc1ccc2[nH]c(C)cc2c1F | 6.22 | 6.00 | 6.35 |  |  |  | 
18 | CO/N=C/c1c(N)ncnc1Oc1ccc2[nH]ccc2c1F | 6.40 | 6.44 | 6.31 |  |  |  | 
19 | CO/N=C/c1c(N)ncnc1Oc1ccc2[nH]ccc2c1 | 5.73 | 5.45 | 6.11 |  |  |  | 
20 | CCCO/N=C/c1c(N)ncnc1Oc1ccc2[nH]c(C)cc2c1F | 7.40 | 7.52 | 7.55 |  |  |  | 
21 | Cc1cc2c(F)c(Oc3ncnc(N)c3/C=N/OCc3ccccc3)ccc2[nH]1 | 6.58 | 6.51 | 7.21 |  |  |  | 
